The results in this text go back to patent publication US20220370453A1 (Storm Therapeutics Ltd, priority 2019, published 2022).

Experiment [1] has as its target T1, BCDIN3D (Homo sapiens, UniProt Q7Z5W3).
T1 sequence (Q7Z5W3 1-292): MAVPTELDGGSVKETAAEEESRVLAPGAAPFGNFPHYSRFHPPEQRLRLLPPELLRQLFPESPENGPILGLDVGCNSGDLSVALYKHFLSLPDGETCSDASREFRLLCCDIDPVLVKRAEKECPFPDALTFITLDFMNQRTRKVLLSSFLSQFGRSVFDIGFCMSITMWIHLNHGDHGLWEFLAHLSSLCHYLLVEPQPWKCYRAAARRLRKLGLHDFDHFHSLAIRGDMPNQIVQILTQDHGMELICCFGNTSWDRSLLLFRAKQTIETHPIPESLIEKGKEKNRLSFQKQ
Put plainly: BCDIN3D InCellPulse thermal stability assay in transfected A549 cells. The format is cell-based. The settings on record: transiently transfected A549 cells, heat shock 58° C. 15 min. Summed up: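 Thermal stabilisation read-out: after a 15 min 58 °C heat shock, ePL-tagged BCDIN3D in transiently transfected A549 cells (1500/well) was quantified by enzyme-fragment complementation luminescence. Compounds were pre-incubated with cells 1 h at 37 °C, 0.6% DMSO final.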

Experiment [2] concerns the target T1, BCDIN3D. Put plainly: BCDIN3D IC50 RFMS (RapidFire) assay with mini-helix. The settings on record: mini-helix substrate 0.2 μM, SAM 6 μM, 25 nM enzyme. It counts as biochemical. Summed up: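 SAH formation was measured by RapidFire mass spectrometry with D4- and 13C10-SAH internal standards after TCA quench. Substrates 6 μM SAM and 0.2 μM mini-helix reacted 1 h at 37 °C with 25 nM enzyme, which had been preincubated 10 min with compound (1% DMSO) in Tris pH 8.0 buffer with DTT, EDTA, BSA.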

The IC50 is the concentration at which inhibition is half-maximal. Low values mean higher potency, high ones lower potency. On to `Cn1ncc2c(Nc3ccc(OC(F)F)nc3)nc(NCC(C)(N)c3ccccc3)nc21` (stereo not shown) [Compound 4.29, N6-(2-amino-2-phenyl-propyl)-N4-[6-(difluoromethoxy)-3-pyridyl]-1-methyl-pyrazolo[3,4-d]pyrimidine-4,6-diamine], for which the IC50 against BCDIN3D [1] worked out at 525 nM; on BCDIN3D [2] it was 116 nM.

Take `Cn1ncc2c(Nc3ccc(Cl)cc3)nc(NC[C@H](N)c3ccccc3)nc21` [Compound 4.30, N6-[(2R)-2-amino-2-phenyl-ethyl]-N4-(4-chlorophenyl)-1-methyl-pyrazolo[3,4-d]pyrimidine-4,6-diamine]: the results for the IC50 on BCDIN3D [1] and against BCDIN3D [2] were 62.6 nM and 28.6 nM, respectively.

Take `Cn1ncc2c(Nc3ccc(Cl)cc3)nc(NC[C@@H](N)c3ccccc3)nc21` [Compound 4.31, N6-[(2S)-2-amino-2-phenyl-ethyl]-N4-(4-chlorophenyl)-1-methyl-pyrazolo[3,4-d]pyrimidine-4,6-diamine]: the IC50 on BCDIN3D [1] was 60000 nM; at BCDIN3D [2], 7390 nM.

Turning to `COc1ccc(Nc2nc(NC[C@H](N)c3ccccc3)nc3c2cnn3C)cc1` [Compound 4.32, N6-[(2R)-2-amino-2-phenyl-ethyl]-N4-(4-methoxyphenyl)-1-methyl-pyrazolo[3,4-d]pyrimidine-4,6-diamine], the IC50 turned out to be 140 nM against BCDIN3D [1] and 95.8 nM against BCDIN3D [2].

Take `CC(C)Oc1ccc(Nc2nc(NC[C@H](N)c3ccccc3)nc3c2cnn3C)cc1` [Compound 4.33, N6-[(2R)-2-amino-2-phenyl-ethyl]-N4-(4-isopropoxyphenyl)-1-methyl-pyrazolo[3,4-d]pyrimidine-4,6-diamine]: the 50% inhibitory concentration (IC50) on BCDIN3D [1] came to 38 nM; on BCDIN3D [2], 64.4 nM.

For `Cn1ncc2c(Nc3ccc(F)c(F)c3)nc(NC[C@H](N)c3ccccc3)nc21` [Compound 4.34, N6-[(2R)-2-amino-2-phenyl-ethyl]-N4-(3,4-difluorophenyl)-1-methyl-pyrazolo[3,4-d]pyrimidine-4,6-diamine], the figures for the IC50 on BCDIN3D [1] and at BCDIN3D [2] were 162 nM and 118 nM, respectively.

With `CN(C)c1ccc(Nc2nc(NC[C@H](N)c3ccccc3)nc3c2cnn3C)cc1` [Compound 4.35, N6-[(2R)-2-amino-2-phenyl-ethyl]-N4-[4-(dimethylamino)phenyl]-1-methyl-pyrazolo[3,4-d]pyrimidine-4,6-diamine], the IC50 turned out to be 141 nM on BCDIN3D [1] and 143 nM against BCDIN3D [2].

With `CNc1nc(NCC(N)c2ccccc2)nc2c1cnn2C` (stereo not shown) [Compound 4.36, 6-N-(2-amino-2-phenylethyl)-4-N,1-dimethylpyrazolo[3,4-d]pyrimidine-4,6-diamine], the IC50 against BCDIN3D [1] was 1860 nM; against BCDIN3D [2] it was 554 nM.

In the case of `[2H]C([2H])([2H])n1ncc2c(NC)nc(NCC(N)c3ccccc3)nc21` (stereo not shown) [Compound 4.38, 6-N-(2-amino-2-phenylethyl)-4-N-methyl-1-(trideuteriomethyl)pyrazolo[3,4-d]pyrimidine-4,6-diamine], the half-inhibitory concentration (IC50) on BCDIN3D [1] is 9560 nM; on BCDIN3D [2] it was 8100 nM.

`CNc1nc(NCC(C)(N)c2ccccc2)nc2c1cnn2C` (stereo not shown) [Compound 4.39, 6-N-(2-amino-2-phenylpropyl)-4-N,1-dimethylpyrazolo[3,4-d]pyrimidine-4,6-diamine]: the IC50 turned out to be 17100 nM at BCDIN3D [1] and 9170 nM against BCDIN3D [2].

Regarding `CNc1nc(NC[C@H](N)c2ccccc2)nc2c1cnn2C` [Compound 4.40, 6-N-[(2R)-2-amino-2-phenylethyl]-4-N,1-dimethylpyrazolo[3,4-d]pyrimidine-4,6-diamine], the IC50 at BCDIN3D [1] was 4790 nM; against BCDIN3D [2], 3630 nM.

With `CCNc1nc(NCC(N)c2ccccc2)nc2c1cnn2C` (stereo not shown) [Compound 4.41, 6-N-(2-amino-2-phenylethyl)-4-N-ethyl-1-methylpyrazolo[3,4-d]pyrimidine-4,6-diamine], the figures for the half-inhibitory concentration (IC50) against BCDIN3D [1] and against BCDIN3D [2] were 3330 nM and 945 nM, respectively.

With `CCN(C)c1nc(NCC(N)c2ccccc2)nc2c1cnn2C` (stereo not shown) [Compound 4.42, 6-N-(2-amino-2-phenylethyl)-4-N-ethyl-4-N,1-dimethylpyrazolo[3,4-d]pyrimidine-4,6-diamine], the IC50 at BCDIN3D [1] was determined as 7570 nM; against BCDIN3D [2] it was 2280 nM.

In the case of `Cn1ncc2c(NC3CC3)nc(NCC(N)c3ccccc3)nc21` (stereo not shown) [Compound 4.43, 6-N-(2-amino-2-phenylethyl)-4-N-cyclopropyl-1-methylpyrazolo[3,4-d]pyrimidine-4,6-diamine], the IC50 against BCDIN3D [1] came to 4200 nM; against BCDIN3D [2], 2560 nM.

As to `Cn1ncc2c(NCC(F)(F)F)nc(NCC(N)c3ccccc3)nc21` (stereo not shown) [Compound 4.44, 6-N-(2-amino-2-phenylethyl)-1-methyl-4-N-(2,2,2-trifluoroethyl)pyrazolo[3,4-d]pyrimidine-4,6-diamine], the figures for the IC50 on BCDIN3D [1] and against BCDIN3D [2] were 992 nM and 527 nM, respectively.

Turning to `Cn1ncc2c(NCC(F)(F)F)nc(NC[C@H](N)c3ccccc3)nc21` [Compound 4.45, N6-[(2R)-2-amino-2-phenyl-ethyl]-1-methyl-N4-(2,2,2-trifluoroethyl)pyrazolo[3,4-d]pyrimidine-4,6-diamine], the IC50 against BCDIN3D [1] stood at 414 nM; against BCDIN3D [2] it was 316 nM.

For the molecule `CC(C)Nc1nc(NCC(N)c2ccccc2)nc2c1cnn2C` (stereo not shown) [Compound 4.46, 6-N-(2-amino-2-phenylethyl)-1-methyl-4-N-propan-2-ylpyrazolo[3,4-d]pyrimidine-4,6-diamine], the IC50 was determined as 1130 nM on BCDIN3D [1] and 501 nM on BCDIN3D [2].

`CC(C)Nc1nc(NC[C@H](N)c2ccccc2)nc2c1cnn2C` [Compound 4.47, 6-N-[(2R)-2-amino-2-phenylethyl]-1-methyl-4-N-propan-2-ylpyrazolo[3,4-d]pyrimidine-4,6-diamine]: the IC50 was found to be 667 nM against BCDIN3D [1] and 253 nM against BCDIN3D [2].

With `Cn1ncc2c(N3CCCC3)nc(NCC(N)c3ccccc3)nc21` (stereo not shown) [Compound 4.48, N′-(1-methyl-4-pyrrolidin-1-ylpyrazolo[3,4-d]pyrimidin-6-yl)-1-phenylethane-1,2-diamine], the half-inhibitory concentration (IC50) stood at 7400 nM at BCDIN3D [1] and 3860 nM against BCDIN3D [2].

For the molecule `COCCNc1nc(NCC(N)c2ccccc2)nc2c1cnn2C` (stereo not shown) [Compound 4.49, 6-N-(2-amino-2-phenylethyl)-4-N-(2-methoxyethyl)-1-methylpyrazolo[3,4-d]pyrimidine-4,6-diamine], the results for the IC50 at BCDIN3D [1] and at BCDIN3D [2] were 6060 nM and 3390 nM, respectively.

Consider `Cn1ncc2c(NC(C)(C)C)nc(NCC(N)c3ccccc3)nc21` (stereo not shown) [Compound 4.50, 6-N-(2-amino-2-phenylethyl)-4-N-tert-butyl-1-methylpyrazolo[3,4-d]pyrimidine-4,6-diamine], for which the IC50 at BCDIN3D [1] is 871 nM; at BCDIN3D [2], 196 nM.

For `Cn1ncc2c(NC(C)(C)C)nc(NCC(C)(N)c3ccccc3)nc21` (stereo not shown) [Compound 4.51, N6-(2-amino-2-phenyl-propyl)-N4-tert-butyl-1-methyl-pyrazolo[3,4-d]pyrimidine-4,6-diamine], the IC50 against BCDIN3D [1] turned out to be 1810 nM; on BCDIN3D [2], 581 nM.

For `[2H]C([2H])([2H])n1ncc2c(NC(C)(C)C)nc(NCC(N)c3ccccc3)nc21` (stereo not shown) [Compound 4.52, N6-(2-amino-2-phenyl-ethyl)-N4-tert-butyl-1-(trideuteriomethyl)pyrazolo[3,4-d]pyrimidine-4,6-diamine], the IC50 was found to be 536 nM on BCDIN3D [1] and 169 nM against BCDIN3D [2].

Consider `Cn1ncc2c(NC(C)(C)C)nc(NC[C@H](N)c3ccccc3)nc21` [Compound 4.53, 6-N-[(2R)-2-amino-2-phenylethyl]-4-N-tert-butyl-1-methylpyrazolo[3,4-d]pyrimidine-4,6-diamine], for which the IC50 against BCDIN3D [1] came out at 282 nM; at BCDIN3D [2], 118 nM.

`Cn1ncc2c(NC(C)(C)C)nc(NC[C@@H](N)c3ccccc3)nc21` [Compound 4.54, 6-N-[(2S)-2-amino-2-phenylethyl]-4-N-tert-butyl-1-methylpyrazolo[3,4-d]pyrimidine-4,6-diamine]: the IC50 against BCDIN3D [1] came out at 3110 nM; against BCDIN3D [2], 1970 nM.

As for `[2H]C([2H])([2H])n1ncc2c(NC(C)(C)C)nc(NC[C@H](N)c3ccccc3)nc21` [Compound 4.55, N6-[(2R)-2-amino-2-phenyl-ethyl]-N4-tert-butyl-1-(trideuteriomethyl)pyrazolo[3,4-d]pyrimidine-4,6-diamine], the IC50 against BCDIN3D [1] is 152 nM; on BCDIN3D [2], 133 nM.

Consider `Cn1ncc2c(NCC3CC3)nc(NCC(N)c3ccccc3)nc21` (stereo not shown) [Compound 4.56, 6-N-(2-amino-2-phenylethyl)-4-N-(cyclopropylmethyl)-1-methylpyrazolo[3,4-d]pyrimidine-4,6-diamine], for which the IC50 against BCDIN3D [1] was determined as 7270 nM; on BCDIN3D [2] it was 3470 nM.

For the molecule `Cn1ncc2c(NC(C3CC3)C3CC3)nc(NCC(N)c3ccccc3)nc21` (stereo not shown) [Compound 4.57, N6-(2-amino-2-phenyl-ethyl)-N4-(dicyclopropylmethyl)-1-methyl-pyrazolo[3,4-d]pyrimidine-4,6-diamine], the IC50 on BCDIN3D [1] is 2720 nM; on BCDIN3D [2], 6450 nM.

Turning to `CC1CC1CNc1nc(NC[C@H](N)c2ccccc2)nc2c1cnn2C` (stereo partly drawn) [Compound 4.58, N6-[(2R)-2-amino-2-phenyl-ethyl]-1-methyl-N4-[(2-methylcyclopropyl)methyl]pyrazolo[3,4-d]pyrimidine-4,6-diamine], the IC50 at BCDIN3D [1] amounted to 184 nM; on BCDIN3D [2], 70.4 nM.
